Laboratory results published in patent US10517889B2, “Modulators of SMAD7 expression” (Ionis Pharmaceuticals, Inc., priority 2017, dated 2019).
pIC50: −log10 of the molar value. Strand notation (5' to 3'): a small letter for the sugar, then the base; units joined by * are phosphorothioate-linked, units joined directly phosphodiester-linked; [ ] holds rarer units or linkages, { } end groups; capitals alone tell only the bases. k = constrained ethyl (cEt); [5mC] = 5-methylcytosine; d = 2'-deoxy (DNA)

How the values were obtained:
Format in all cases: cell-based
[1] = tested on: human SMAD7 mRNA; assay: Antisense inhibition of human SMAD7 mRNA expression in Hep3B cells by 3-10-3 cEt gapmers, 10,000 nM, electroporation (Example 2); details: approximately 24 hours, primer probe set RTS5062, relative to untreated control cells; for % Inhibition: SMAD7 mRNA, Hep3B cells, 10,000 nM antisense oligonucleotide, electroporation
Summary of the method: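 Hep3B cells (20,000/well) were electroporated with 10,000 nM 3-10-3 cEt gapmer (16-mer, phosphorothioate, 5-methylcytosines) and harvested after about 24 h. SMAD7 mRNA quantified by RT-qPCR with primer probe set RTS5062, normalized to total RNA by RiboGreen; percent inhibition relative to untreated cells.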

[2] = tested on: human SMAD7 mRNA; assay: Dose-dependent inhibition of human SMAD7 mRNA expression in Hep3B cells, comparison with ION 28453 (Example 4); details: electroporation, approximately 16 hours; for pIC50: SMAD7 mRNA
Procedure: Cells were plated at a density of 20,000 cells per well and transfected using electroporation with 0.25 μM, 0.74 μM, 2.22 μM, 6.67 μM, or 20.00 μM concentrations of antisense oligonucleotide, as specified in the Tables below. After a treatment period of approximately 16 hours, RNA was isolated from the cells and SMAD7 mRNA levels were measured by quantitative real-time PCR. Primer probe set RTS5062 was used to measure human SMAD7 mRNA levels. SMAD7 mRNA levels were adjusted according to total RNA content, as measured by RIBOGREEN®. Results are presented as percent inhibition of SMAD7 mRNa expression, relative to untreated control cells.
The half maximal inhibitory concentration (IC50) of each oligonucleotide is also presented. […] Several newly designed antisense oligonucleotides had greater potency than the previously disclosed lead compound, ION 28453.

[3] = tested on: human SMAD7 mRNA; assay: Dose-dependent inhibition of human SMAD7 mRNA expression in Hep3B cells (Example 3, Study 1 and 2); details: electroporation; for % inhibition of SMAD7 mRNA expression: approximately 16 hours; for pIC50: Study 2 (740-20000 nM)
Summary of the method: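 Hep3B cells, 20,000 per well, electroporated with antisense oligonucleotide at 0.31, 1.25, 5.00 or 20.00 μM (first series) or 0.74, 2.22, 6.67 or 20.00 μM (second series). After ~16 h, SMAD7 mRNA measured by RT-qPCR (RTS5062), normalised to RIBOGREEN total RNA. Percent inhibition vs untreated cells; IC50 derived.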

[4] = 740 nM, Study 2, relative to untreated control cells

| Substance | % inhibition of SMAD7 mRNA expression ([1]; Hep3B cells, electroporation with 10,000 nM antisense oligonucleotide) [%] | % Inhibition [1] [%] | % inhibition of SMAD7 mRNA expression ([2]; 0.25 μM) [%] | % inhibition of SMAD7 mRNA expression ([2]; 0.74 μM) [%] | % inhibition of SMAD7 mRNA expression ([2]; 2.22 μM) [%] | % inhibition of SMAD7 mRNA expression ([2]; 6.67 μM) [%] | % inhibition of SMAD7 mRNA expression ([2]; 20.00 μM) [%] | pIC50 [2] | % inhibition of SMAD7 mRNA expression [3, 4] [%] | % inhibition of SMAD7 mRNA expression ([3]; 2220 nM, Study 2) [%] | % inhibition of SMAD7 mRNA expression ([3]; 6670.0 nM, Study 2) [%] | % inhibition of SMAD7 mRNA expression ([3]; 20000.0 nM, Study 2) [%] | pIC50 [3] |
| --- | --- | --- | --- | --- | --- | --- | --- | --- | --- | --- | --- | --- | --- |
| 799184 (antisense kA*kA*k[5mC]*d[5mC]*dT*dT*dT*dG*dT*dA*dG*dT*dT*kA*kG*kA) [compound 799184] | 58 | 48 | 0 | 10 | 18 | 51 | 78 | 5.22 |  |  |  |  |  |
| 800821 (antisense kG*k[5mC]*kT*dA*dA*dA*dT*dT*dT*d[5mC]*d[5mC]*dA*dA*kT*kG*kA) [compound 800821] |  | 56 | 14 | 30 | 35 | 58 | 79 | 5.40 |  |  |  |  |  |
| 801040 (antisense kG*kT*k[5mC]*dA*dT*dG*dA*dA*dA*dG*dA*dT*dT*k[5mC]*kT*kT) [compound 801040] |  | 72 | 31 | 44 | 67 | 63 | 91 | 6.00 | 52 | 55 | 60 | 95 | 6.00 |
| 801051 (antisense kG*kT*kG*dT*dT*d[5mC]*dA*dA*d[5mC]*dA*dA*dT*dG*k[5mC]*kT*kT) [compound 801051] |  | 68 | 0 | 10 | 34 | 62 | 83 | 5.40 | 52 | 62 | 76 | 88 | 5.40 |
